The IC50 is the concentration that inhibits the measured activity by half. A high value points to weaker potency. For orientation: pIC50 means the IC50 on a negative log10 scale, so that one unit is a factor of ten. Low values mean a high IC50, high ones a low IC50.

This is an account of results in ChEMBL document CHEMBL1136167, “Prediction of hERG potassium channel affinity by traditional and hologram qSAR methods” (Bioorg Med Chem Lett, 2003).

Data set [1] deals with T1, Voltage-gated inwardly rectifying potassium channel KCNH2 (Homo sapiens, UniProt Q12809). As to the kind of experiment: Inhibition of human Potassium channel HERG expressed in mammalian cells.
Data set [2] deals with T1, Voltage-gated inwardly rectifying potassium channel KCNH2. Briefly: Inhibition of K+ channel activity in mammalian cells expressing HERG Kv11.1. Format: cell-based.

T1 sequence (Q12809 whole entry): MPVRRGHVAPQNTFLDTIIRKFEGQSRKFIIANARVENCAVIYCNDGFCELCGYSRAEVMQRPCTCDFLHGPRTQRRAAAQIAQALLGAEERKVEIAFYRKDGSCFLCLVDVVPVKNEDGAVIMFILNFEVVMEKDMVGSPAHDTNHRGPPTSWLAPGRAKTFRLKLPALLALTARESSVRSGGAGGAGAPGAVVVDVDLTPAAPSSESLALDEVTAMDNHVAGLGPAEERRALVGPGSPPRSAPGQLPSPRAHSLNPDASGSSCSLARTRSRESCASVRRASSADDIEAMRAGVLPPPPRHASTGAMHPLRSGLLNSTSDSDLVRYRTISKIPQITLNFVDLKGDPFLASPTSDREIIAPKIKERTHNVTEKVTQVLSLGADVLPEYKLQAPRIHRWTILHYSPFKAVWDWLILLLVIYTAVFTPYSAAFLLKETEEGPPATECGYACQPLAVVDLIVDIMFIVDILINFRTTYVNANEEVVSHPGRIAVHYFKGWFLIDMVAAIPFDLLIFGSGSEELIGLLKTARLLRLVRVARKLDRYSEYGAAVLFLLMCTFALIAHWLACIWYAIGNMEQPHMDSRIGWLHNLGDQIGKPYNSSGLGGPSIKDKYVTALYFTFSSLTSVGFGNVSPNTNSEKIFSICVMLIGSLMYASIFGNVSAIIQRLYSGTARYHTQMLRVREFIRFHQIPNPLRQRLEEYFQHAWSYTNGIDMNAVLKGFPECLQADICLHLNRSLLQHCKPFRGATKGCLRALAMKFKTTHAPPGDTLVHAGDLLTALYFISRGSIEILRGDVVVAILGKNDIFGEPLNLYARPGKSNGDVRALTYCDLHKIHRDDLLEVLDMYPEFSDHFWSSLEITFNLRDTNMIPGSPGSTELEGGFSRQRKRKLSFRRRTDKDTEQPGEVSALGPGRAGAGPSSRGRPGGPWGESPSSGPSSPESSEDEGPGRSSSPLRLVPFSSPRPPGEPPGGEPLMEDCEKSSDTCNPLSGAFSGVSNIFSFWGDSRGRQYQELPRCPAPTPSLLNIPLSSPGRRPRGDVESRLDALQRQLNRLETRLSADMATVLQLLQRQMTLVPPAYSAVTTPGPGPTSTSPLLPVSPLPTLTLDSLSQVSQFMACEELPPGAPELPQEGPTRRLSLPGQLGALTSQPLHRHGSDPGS

On to `O=C(O[C@H]1C[C@@H]2C[C@@H]3C[C@@H](C1)N2CC3=O)C1CNc2ccccc21` (some centres undefined), for which, in data set [1], the half-maximal inhibitory concentration (IC50) is 5.89 µM. The same measure, in the same setting: as for `COc1ccc(C2CCN(CCC3CCOc4ccccc43)CC2)cc1OC` (centres undefined), the figure is 0.2 µM.

With `CC[C@H]1OC(=O)[C@H](C)[C@@H](O[C@H]2C[C@@](C)(OC)[C@@H](O)[C@H](C)O2)[C@H](C)[C@@H](O[C@@H]2O[C@H](C)C[C@H](N(C)C)[C@H]2O)[C@](C)(OC)C[C@@H](C)C(=O)[C@H](C)[C@@H](O)[C@]1(C)O` [CLARITHROMYCIN], the IC50 is 58.9 µM in data set [1] and 33.1 µM in data set [2]. Consider `Oc1ccc(CCN2CCC(Nc3nc4ccccc4n3Cc3ccc(F)cc3)CC2)cc1` [DESMETHEYLASTEMIZOLE], for which, in data set [1], inhibition was half-maximal at 0.001 µM (IC50). Same read-out and setting: as for `COc1c(N2CCNC(C)C2)c(F)cc2c(=O)c(C(=O)O)cn(C3CC3)c12` (centres undefined) [GATIFLOXACIN], the figure is 129 µM. Turning to `Cc1c(F)c(N2CCNC(C)C2)cc2c1c(=O)c(C(=O)O)cn2C1CC1` (centres undefined) [GREPAFLOXACIN], in data set [1] (human), the negative logarithm of the IC50 (pIC50) stood at […]. `CN(c1nccc(=O)[nH]1)C1CCN(c2nc3ccccc3n2Cc2ccc(F)cc2)CC1` [MIZOLASTINE]: inhibition in data set [1] was half-maximal at 0.437 µM (IC50). The same measure, in the same setting: the figure for `CN1CCC[C@H]1c1cccnc1` [NICOTINE] is 245 µM; for `CCOC(=O)C1=C(C)NC(C)=C(C(=O)OC)C1c1cccc([N+](=O)[O-])c1` (centres undefined) [NITRENDIPINE] it is 10 µM; for `Cc1cc2c(s1)Nc1ccccc1N=C2N1CCN(C)CC1` [OLANZAPINE] it is 0.182 µM. On the same count and under the same terms, the figure for `C[C@@H]1CN(c2c(F)c(N)c3c(=O)c(C(=O)O)cn(C4CC4)c3c2F)C[C@H](C)N1` [SPARFLOXACIN] is 18.2 µM; for `COc1ccc(C2CCN(CC[C@H]3CCOc4ccccc43)CC2)cc1OC` [TERIKALANT] it is 0.251 µM.

`COc1ccc(C(=O)N2CCN(c3ccc4c(c3)CCC(=O)N4)CC2)cc1OC` [VESNARINONE] gave an IC50 in data set [1] of 1.1 µM.
